Like-named read-outs stand apart in the source and are kept apart here.
Columns and labels:
NC(11-55) = NC(11-55) (Human immunodeficiency virus type 1, UniProt P12493); assay: NC inhibition assay (NC-induced cTAR DNA destabilization, fluorescence); type: biochemical, HIV-1; conditions: for inhibition at 100 µM: single point screening, positive = >25% inhibition at 100µM
How it was run: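 Doubly labelled cTAR (0.1 µM, Alexa488/Dabcyl) pre-complexed with 1 µM Zn-loaded NC(11-55) for 15 min, then compound added for a further 15 min; run at 20 °C in Tris-HCl pH 7.5, 30 mM NaCl, 0.2 mM MgCl2. Fluorescence read at ex 480/em 520 nm. IC50 taken from dose-response fit of % inhibition of NC-induced fluorescence increase.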

[1] = biological target: T1, full length (1-55) HIV-1 NCp7 (Human immunodeficiency virus type 1 group M subtype B, UniProt P12493); assay: Electromobility Shift Assay (EMSA), competition for ssDNA binding; conditions: NCp7 300 nM, M13mp18 ssDNA; positive = >25% inhibition at 100µM
T1 construct: recombinant full length (1-55) HIV-1 NCp7 proteins; made in house
How it was run: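 Recombinant NL4-3 NCp7 (300 nM in the pre-mix) was combined with compound in 20 mM Tris-HCl pH 7.4, 2 mM MgCl2, 100 mM NaCl, 1 mM DTT, then M13mp18 ssDNA was added for 25 min at 37 °C. Complexes were run on 1% agarose/0.5x TBE and stained with SybrGold. IC50 is the concentration at which bound ssDNA migrated 50% of the bound–unbound distance (triplicate).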

HeLa cells = assay: HeLa Proliferation assay (CellTiter Glo); type: cell-based; conditions: 72 hours
How it was run: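 Viability measured with CellTiter Glo after 72 h compound exposure (37 °C, 5% CO2, humidified) of HeLa cells seeded at 2000 per well in 10% FBS DMEM without phenol red and allowed 4 h recovery.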

`COc1ccc(-c2nc(O)c(O)c(C(=O)N[C@H](C)C3CCCCC3)n2)nc1` [Compound 32, (R)-N-(1-cyclohexylethyl)-5,6-dihydroxy-2-(5-methoxypyridin-2-yl)pyrimidine-4-carboxamide] was tested, and the IC50 (NC(11-55)) was 45 µM, the inhibition at 100 µM (NC(11-55)) was > 25% and the EMSA screening results [1] was “Positive (A compound showing >25% inhibition when tested at 100µM concentration is considered as "positive")”. For the same molecule, the “Proliferation assay HELA TD50” value (HeLa cells) was 0.9356 µM.

With `C[C@@H](NC(=O)c1nc(-c2ncccc2Cl)nc(O)c1O)C1CCCCC1` [Compound 33, (R)-2-(3-chloropyridin-2-yl)-N-(1-cyclohexylethyl)-5,6-dihydroxypyrimidine-4-carboxamide] the IC50 (NC(11-55)) was 18 µM, the inhibition at 100 µM (NC(11-55)) was > 25% and the EMSA screening results [1] was “Positive (A compound showing >25% inhibition when tested at 100µM concentration is considered as "positive")”. For the same molecule, the “Proliferation assay HELA TD50” value (HeLa cells) was 6.8148 µM.

In the case of `C[C@@H](NC(=O)c1nc(-c2cccc(Cl)n2)nc(O)c1O)C1CCCCC1` [Compound 34, (R)-2-(6-chloropyridin-2-yl)-N-(1-cyclohexylethyl)-5,6-dihydroxypyrimidine-4-carboxamide], the IC50 (NC(11-55)) is reported as 47.5 µM, the inhibition at 100 µM (NC(11-55)) is reported as > 25% and the EMSA screening results [1] is reported as “Negative”. The “Proliferation assay HELA TD50” value (HeLa cells) was 8.2296 µM.

For `C[C@@H](NC(=O)c1nc(-c2cc(OCc3ccccc3)ccn2)nc(O)c1O)C1CCCCC1` [Compound 35, (R)-2-(4-(benzyloxy)pyridin-2-yl)-N-(1-cyclohexylethyl)-5,6-dihydroxypyrimidine-4-carboxamide], the inhibition at 100 µM (NC(11-55)) was > 25%, the EMSA screening results [1] was “Positive (A compound showing >25% inhibition when tested at 100µM concentration is considered as "positive")” and the “Proliferation assay HELA TD50” value (HeLa cells) was 4.5896 µM.

With `C[C@@H](NC(=O)c1nc(-c2ccc(C(F)(F)F)cn2)nc(O)c1O)C1CCCCC1` [Compound 36, (R)-N-(1-cyclohexylethyl)-5,6-dihydroxy-2-(5-(trifluoromethyl)pyridin-2-yl)pyrimidine-4-carboxamide] the IC50 (NC(11-55)) was 22.5 µM, the inhibition at 100 µM (NC(11-55)) was > 25% and the EMSA screening results [1] was “Positive (A compound showing >25% inhibition when tested at 100µM concentration is considered as "positive")”. For the same molecule, the “Proliferation assay HELA TD50” value (HeLa cells) was 4.7177 µM.

For `COc1cccc(-c2nc(O)c(O)c(C(=O)N[C@H](C)C3CCCCC3)n2)n1` [Compound 37, (R)-N-(1-cyclohexylethyl)-5,6-dihydroxy-2-(6-methoxypyridin-2-yl)pyrimidine-4-carboxamide], the IC50 (NC(11-55)) was 29 µM, the inhibition at 100 µM (NC(11-55)) was > 25% and the EMSA screening results [1] was “Positive (A compound showing >25% inhibition when tested at 100µM concentration is considered as "positive")”. The “Proliferation assay HELA TD50” value (HeLa cells) was 0.8976 µM.

For `C[C@H](NC(=O)c1nc(-c2ccccn2)nc(O)c1O)C1CCCCC1` [Compound 38, (S)-N-(1-cyclohexylethyl)-5,6-dihydroxy-2-(pyridin-2-yl)pyrimidine-4-carboxamide], the IC50 (NC(11-55)) was 46.5 µM, the inhibition at 100 µM (NC(11-55)) was > 25% and the EMSA screening results [1] was “Positive (A compound showing >25% inhibition when tested at 100µM concentration is considered as "positive")”. The “Proliferation assay HELA TD50” value (HeLa cells) was 0.5782 µM.

In the case of `Cc1cccnc1-c1nc(O)c(O)c(C(=O)N[C@@H](C)C2CCCCC2)n1` [Compound 39, (S)-N-(1-cyclohexylethyl)-5,6-dihydroxy-2-(3-methylpyridin-2-yl)pyrimidine-4-carboxamide], the IC50 (NC(11-55)) is reported as 27 µM, the inhibition at 100 µM (NC(11-55)) is reported as > 25% and the EMSA screening results [1] is reported as “Negative”. The “Proliferation assay HELA TD50” value (HeLa cells) was 0.8788 µM.

In the case of `Cc1ccc(-c2nc(O)c(O)c(C(=O)N[C@H](C)C3CCCCC3)n2)nc1` [Compound 41, (R)-N-(1-cyclohexylethyl)-5,6-dihydroxy-2-(5-methylpyridin-2-yl)pyrimidine-4-carboxamide], the inhibition at 100 µM (NC(11-55)) is reported as > 25%, the EMSA screening results [1] is reported as “Positive (A compound showing >25% inhibition when tested at 100µM concentration is considered as "positive")” and the “Proliferation assay HELA TD50” value (HeLa cells) is reported as 2.013 µM.

`O=C(NCCC1CCCC1)c1nc(-c2ccccn2)nc(O)c1O` [Compound 43, N-(2-cyclopentylethyl)-5,6-dihydroxy-2-(pyridin-2-yl)pyrimidine-4-carboxamide] was tested, and the inhibition at 100 µM (NC(11-55)) was > 25%, the EMSA screening results [1] was “Positive (A compound showing >25% inhibition when tested at 100µM concentration is considered as "positive")” and the “Proliferation assay HELA TD50” value (HeLa cells) was 2.1901 µM.

With `C[C@@H](NC(=O)c1nc(-c2cccc(C(F)(F)F)n2)nc(O)c1O)C1CCCCC1` [Compound 44, (R)-N-(1-cyclohexylethyl)-5,6-dihydroxy-2-(6-(trifluoromethyl)pyridin-2-yl)pyrimidine-4-carboxamide] the inhibition at 100 µM (NC(11-55)) was > 25%, the EMSA screening results [1] was “Positive (A compound showing >25% inhibition when tested at 100µM concentration is considered as "positive")” and the “Proliferation assay HELA TD50” value (HeLa cells) was >50 µM.

`C[C@@H](NC(=O)c1nc(-c2cccc(N)n2)nc(O)c1O)C1CCCCC1` [Compound 45, (R)-2-(6-aminopyridin-2-yl)-N-(1-cyclohexylethyl)-5,6-dihydroxypyrimidine-4-carboxamide] was tested, and the IC50 (NC(11-55)) was 30.5 µM, the inhibition at 100 µM (NC(11-55)) was > 25% and the EMSA screening results [1] was “Positive (A compound showing >25% inhibition when tested at 100µM concentration is considered as "positive")”. For the same molecule, the “Proliferation assay HELA TD50” value (HeLa cells) was 3.2272 µM.

`C[C@@H](NC(=O)c1nc(-c2cc(C(=O)OCc3ccccc3)ccn2)nc(O)c1O)C1CCCCC1` [Compound 46, benzyl (R)-2-(4-((1-cyclohexylethyl)carbamoyl)-5,6-dihydroxypyrimidin-2-yl)isonicotinate] was tested, and the IC50 (NC(11-55)) was 10 µM, the inhibition at 100 µM (NC(11-55)) was > 25% and the EMSA screening results [1] was “Positive (A compound showing >25% inhibition when tested at 100µM concentration is considered as "positive")”. For the same molecule, the “Proliferation assay HELA TD50” value (HeLa cells) was 6.4784 µM.

In the case of `C[C@@H](NC(=O)c1nc(-c2ccc(C(=O)NCc3ccccc3)cn2)nc(O)c1O)C1CCCCC1` [Compound 50, (R)-2-(5-(benzylcarbamoyl)pyridin-2-yl)-N(1-cyclohexylethyl)-5,6-dihydroxypyrimidine-4-carboxamide], the IC50 (NC(11-55)) is reported as 5 µM, the inhibition at 100 µM (NC(11-55)) is reported as > 25% and the EMSA screening results [1] is reported as “Positive (A compound showing >25% inhibition when tested at 100µM concentration is considered as "positive")”. For the same molecule, the “Proliferation assay HELA TD50” value (HeLa cells) was 2.2912 µM.

In the case of `C[C@@H](NC(=O)c1nc(-c2ccc(C(N)=O)cn2)nc(O)c1O)C1CCCCC1` [Compound 51, (R)-2-(5-carbamoylpyridin-2-yl)-N-(1-cyclohexylethyl)-5,6-dihydroxypyrimidine-4-carboxamide], the IC50 (NC(11-55)) is reported as 10 µM, the inhibition at 100 µM (NC(11-55)) is reported as > 25% and the EMSA screening results [1] is reported as “Negative”. The “Proliferation assay HELA TD50” value (HeLa cells) was 26.976 µM.

In the case of `C[C@H](NC(=O)c1nc(-c2cc(C(F)(F)F)ccn2)nc(O)c1O)C1CCCCC1` [Compound 52, (S)-N-(1-cyclohexylethyl)-5,6-dihydroxy-2-(4-(trifluoromethyl)pyridin-2-yl)pyrimidine-4-carboxamide], the IC50 (NC(11-55)) is reported as 26.5 µM, the inhibition at 100 µM (NC(11-55)) is reported as > 25% and the EMSA screening results [1] is reported as “Positive (A compound showing >25% inhibition when tested at 100µM concentration is considered as "positive")”. The “Proliferation assay HELA TD50” value (HeLa cells) was 10.186 µM.

`C[C@@H](NC(=O)c1nc(-c2ccc(CNCc3ccccc3)cn2)nc(O)c1O)C1CCCCC1` [Compound 53, (R)-2-(5-((benzylamino)methyl)pyridin-2-yl)-N-(1-cyclohexylethyl)-5,6-dihydroxypyrimidine-4-carboxamide] was tested, and the IC50 (NC(11-55)) was 7.5 µM, the inhibition at 100 µM (NC(11-55)) was > 25% and the EMSA screening results [1] was “Negative”. For the same molecule, the “Proliferation assay HELA TD50” value (HeLa cells) was 2.8763 µM.

For `C[C@@H](NC(=O)c1nc(-c2cccc(C(=O)OCc3ccccc3)n2)nc(O)c1O)C1CCCCC1` [Compound 54, benzyl (R)-6-(4-((1-cyclohexylethyl)carbamoyl)-5,6-dihydroxypyrimidin-2-yl)picolinate], the inhibition at 100 µM (NC(11-55)) was > 25%, the EMSA screening results [1] was “Positive (A compound showing >25% inhibition when tested at 100µM concentration is considered as "positive")” and the “Proliferation assay HELA TD50” value (HeLa cells) was 24.972 µM.

For `C[C@@H](NC(=O)c1nc(-c2ccc(CO)cn2)nc(O)c1O)C1CCCCC1` [Compound 55, (R)-N-(1-cyclohexylethyl)-5,6-dihydroxy-2-(5-(hydroxymethyl)pyridin-2-yl)pyrimidine-4-carboxamide], the IC50 (NC(11-55); cTAR DNA 0.1 µM, 1 µM NC(11-55), 20 °C, pH 7.5, read-out: NC inhibition IC50) was 40 µM, the inhibition at 100 µM (NC(11-55)) was > 25% and the EMSA screening results [1] was “Positive (A compound showing >25% inhibition when tested at 100µM concentration is considered as "positive")”. The “Proliferation assay HELA TD50” value (HeLa cells) was 1.4665 µM.

`CC1CCC(NC(=O)c2nc(-c3ccccn3)nc(O)c2O)CC1` (stereo not drawn) [Compound 56, 5,6-dihydroxy-N-(4-methylcyclohexyl)-2-(pyridin-2-yl)pyrimidine-4-carboxamide] was tested, and the IC50 (NC(11-55)) was 35 µM, the inhibition at 100 µM (NC(11-55)) was > 25% and the EMSA screening results [1] was “Positive (A compound showing >25% inhibition when tested at 100µM concentration is considered as "positive")”. For the same molecule, the “Proliferation assay HELA TD50” value (HeLa cells) was 3.2039 µM.
